Test results published in patent US10738074B2, “Cyclic di-nucleotide compounds as STING agonists” (Merck Sharp & Dohme Corp., priority 2015, dated 2020).

Tests used:
full-length WT STING = full-length WT STING (Homo sapiens (Human), UniProt Q86WV6, H232R); assay: 3H-cGAMP filtration binding assay (WT STING); conditions: competition with tritiated cGAMP, WT STING membrane
From the text: (§1) The ability of compounds to bind STING is quantified by their ability to compete with tritiated cGAMP ligand for human STING receptor membrane using a radioactive filter-binding assay. The binding assay employs STING receptor obtained from Trichoplusia ni cell membranes (Tni; Expression Systems, cat #94-002F, www.expressionsystems.com) overexpressing full-length WT STING prepared in-house and tritiated cGAMP ligand also purified in-house.
The basic WT STING filtration assay protocol is as follows:
The filter plates were then dried at 55° C. for 30 min using a pressurized VWR oven before 30 uL of Ultima GoldF scintillate was added to each well. Tritium levels for each reaction well were then measured using a PerkinElmer TopCount plate reader.
(§2) After normalization to controls, the percent activity for each compound concentration was calculated by measuring the amount of remaining radioactivity. The plot of percent activity versus the log of compound concentration was fit with a 4-parameter dose response equation to calculate EC50 values.

THP1 cells = assay: IFN-β secretion in THP1 cell culture (5 h); type: cell-based, human; conditions: IFN-β secretion, THP1 cells, 5 h, 30 μM; for activation at 30 µM: Homo sapiens, THP-1, 5 h, read-out: % Effect at 30 μM relative to 2′3′-cGAMP
Method: The ability of compounds to stimulate the secretion of interferon-beta from THP1 cells was measured using a human IFN-β AlphaLISA kit (Perkin Elmer, Cat. No. AL265F). The basic protocol is as follows:
A Labcyte Echo 550 acoustic dispenser was used to transfer 120 nL of compound dissolved in DMSO into the wells of an empty, sterile 384-well microplate, (Corning, Cat. No. 3712). THP1 cells (American Type Culture Collection, Cat. No. TIB202) previously frozen in Recovery Medium (Life Technologies, Cat. No. 12648-010) were thawed and immediately diluted 10-fold into 37° C. assay medium (RPMI 1640+L-Glutamine & phenol red, Life Technologies, Cat. No. 11875-085; 0.5% heat inactivated fetal bovine serum, Sigma Aldrich, Cat. No. F4135; 1 mM Sodium Pyruvate, Life Technologies, Cat. No. 11360-070; lx non-essential amino acids; Life Technologies, Cat. No. 11140-050). The cell viability and count was ascertained using a Beckman Coulter V-Cell XR cell counter. The cells suspension was centrifuged at 200×g for 5 min at RT. Cells were resuspended to a density of 0.8×10^6/mL in 37° C. assay medium. Subsequent liquid transfers were performed using either a Matrix electronic multichannel pipette or an Agilent Bravo Automated Liquid Handling Platform.
The assay was started by dispensing 40 μL of the previously prepared cell suspension into the wells of the plate containing compounds. After 5 h incubation at 37° C., 5% CO2 in a humidified atmosphere, the plate of cells and compounds was centrifuged at 200×g for 5 min at RT. From each well, 5 μL of supernatant was transferred into corresponding wells of a white 384-well plate (Perkin Elmer, Cat. No. 6005620). To these supernatant-containing wells was added 10 μL of 5× Anti-Analyte Acceptor beads (50 μg/mL of AlphaLISA HiBlock Buffer) and incubated for 30 min at RT while shaking on an orbital plate shaker. To each well was added 10 μL of 5× Biotinylated Antibody Anti-analyte (5 nM in AlphaLISA HiBlock Buffer) and incubated on an orbital plate shaker for 60 min at RT or overnight at 4° C. To each well was added 25 μL of 2× SA-Donor beads (80 μg/mL in AlphaLISA HiBlock Buffer) and incubated for 30-45 min at RT in the dark while shaking on an orbital plate shaker. The plate was then read on a Perkin Elmer Envision (λex=680 nm, λem=[…]). The percent effect of the AlphaLISA signal at each compound concentration was calculated based on 30 uM cGAMP positive controls and 0.3% DMSO negative controls. The plot of percent effect versus the log of compound concentration was fit with a 4-parameter concentration response equation to calculate EC50 values. The test compounds were tested at concentrations 30000, 10000, 3333, 1111, 370.4, 123.4, 41.2, 13.7, 4.6, and 1.5 nM with 0.3% residual DMSO.
Compounds of the disclosure were evaluated for IFN-β secretion in THP1 cell culture as described above. The following table tabulates the biological data for these compounds as percent activation relative to 2′3′-cGAMP at the 30 μM concentration.

full-length HAQ STING = full-length HAQ STING (Homo sapiens (Human), UniProt Q86WV6, G230A/H232R/R293Q/R71H); assay: 3H-cGAMP filtration binding assay (HAQ STING); conditions: competition with tritiated cGAMP, HAQ STING membrane
From the text: as §1, with “the” for “their”, “Hi-Five” for “Trichoplusia ni”, “membranes” for “membranes (Tni; Expression Systems, cat #94-002F, www.expressionsystems.com)”, “HAQ” for “WT”
as §1, with “www.exrpressionsystems.com)” for “www.expressionsystems.com)”, “HAQ” for “WT”
The basic HAQ STING filtration assay protocol is as follows:
Compound and membrane then preincubated for 60 min at RT to allow compound binding to equilibrate. Following equilibration, 8 nM of [^3H] c-GAMP ligand was prepared by diluting into assay buffer, and 50 uL of this working stock was then manually added to each well of the assay plate. […] The filter plates were then dried at 55° C. for 30 min using a pressurized VWR oven before 30 uL of Ultima GoldF scintillate was added to each well. Tritium levels for each reaction well were then measured using a PerkinElmer TopCount plate reader.
as §2

Sequence of full-length WT STING (Q86WV6 other isoform, or with tags, fused parts or gaps H232R (already in the parent)): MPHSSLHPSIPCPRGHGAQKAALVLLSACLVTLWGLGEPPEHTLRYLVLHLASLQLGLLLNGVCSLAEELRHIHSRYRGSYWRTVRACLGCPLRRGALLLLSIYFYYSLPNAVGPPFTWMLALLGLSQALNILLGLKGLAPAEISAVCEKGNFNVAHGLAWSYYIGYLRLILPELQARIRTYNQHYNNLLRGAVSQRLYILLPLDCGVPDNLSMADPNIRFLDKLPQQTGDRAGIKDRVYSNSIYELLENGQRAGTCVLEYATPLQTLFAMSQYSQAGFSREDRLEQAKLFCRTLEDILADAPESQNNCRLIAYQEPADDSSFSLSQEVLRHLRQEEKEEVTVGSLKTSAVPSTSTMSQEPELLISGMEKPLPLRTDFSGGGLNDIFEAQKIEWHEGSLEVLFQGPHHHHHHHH
Sequence of full-length HAQ STING (Q86WV6 other isoform, or with tags, fused parts or gaps, stated change not applied): as the sequence (Q86WV6 other isoform, or with tags, fused parts or gaps H232R (already in the parent)) above, with R71H, G230A, R293Q counted along it

Row | EC50 (full-length WT STING) | EC50 (full-length HAQ STING) | SMILES | % Effect at 30 μM relative to 2′3′-cGAMP (THP1 cells) | activation at 30 µM (THP1 cells)
1 | < 1 nM | – | Nc1nc2c(ncn2[C@@H]2O[C@@H]3COP(O)(=S)O[C@@H]4[C@H](F)[C@@H](COP(O)(=S)O[C@@H]2[C@@H]3F)O[C@H]4n2cnc3c(=O)[nH]c(N)nc32)c(=O)[nH]1 (single isomer, unassigned) [Example 22] | 129% | –
2 | 4 nM | – | Nc1nc2c(ncn2[C@@H]2O[C@@H]3COP(O)(=S)O[C@@H]4[C@H](F)[C@@H](COP(O)(=S)O[C@@H]2[C@@H]3F)O[C@H]4n2cnc3c(=O)[nH]c(N)nc32)c(=O)[nH]1 (single isomer, unassigned) [Example 23] | 135% | –
3 | 1.2 nM | – | Nc1nc2c(ncn2[C@@H]2O[C@@H]3COP(O)(=S)O[C@@H]4[C@H](F)[C@@H](COP(O)(=S)O[C@@H]2[C@@H]3F)O[C@H]4n2cnc3c(=O)[nH]c(N)nc32)c(=O)[nH]1 (single isomer, unassigned) [Example 24] | 84% | –
4 | – | 102 nM | C[C@@H]1OP(=O)(O)O[C@@H]2[C@H](F)[C@@H](COP(=O)(O)O[C@@H]3[C@H](O)[C@@H]1O[C@H]3n1cnc3c(N)ncnc31)O[C@H]2n1cnc2c(=O)[nH]c(N)nc21 [Example 8, 2-amino-9-[(1R,6R,8R,9S,13S,14S,16R,17R,18R)-16-(6-amino-9H-purin-9-yl)-18-fluoro-3,11,17-trihydroxy-13-methyl-3,11-dioxido-2,4,7,10,12,15-hexaoxa-3,11-diphosphatricyclo[12.2.1.16,9]octadec-8-yl]-1,9-dihydro-6H-purin-6-one] | – | 36%
5 | – | 3.7 nM | Nc1nc2c(ncn2[C@@H]2O[C@@H]3COP(=O)(O)O[C@@H]4C[C@@H](COP(=O)(O)O[C@@H]2[C@@H]3F)O[C@H]4n2cnc3c(N)ncnc32)c(=O)[nH]1 [Example 9, 2-amino-9-[(1R,6R,8R,9S,14S,16R,18R)-16-(6-amino-9H-purin-9-yl)-18-fluoro-3,11-dihydroxy-3,11-dioxido-2,4,7,10,12,15-hexaoxa-3,11-diphosphatricyclo[12.2.1.1^6,9]octadec-8-yl]-1,9-dihydro-6H-purin-6-one] | – | 115%
6 | – | < 1 nM | Nc1nc2c(ncn2[C@@H]2O[C@@H]3COP(=O)(O)O[C@@H]4[C@H](F)[C@@H](COP(=O)(O)O[C@@H]2[C@@H]3F)O[C@H]4n2cnc3c(N)ncnc32)c(=O)[nH]1 [Example 11, 2-amino-9-[(1S,6R,8R,9S,14R,16R,17R,18R)-16-(6-amino-9H-purin-9-yl)-17,18-difluoro-3,11-dihydroxy-3,11-dioxido-2,4,7,10,12,15-hexaoxa-3,11-diphosphatricyclo[12.2.1.1^6,9]octadec-8-yl]-1,9-dihydro-6H-purin-6-one] | – | 131%
7 | – | 674 nM | Nc1nc2c(ncn2[C@@H]2O[C@@H]3COP(=O)(O)O[C@@H]4C[C@@H](COP(=O)(O)O[C@@H]2C3)O[C@H]4n2cnc3c(N)ncnc32)c(=O)[nH]1 [Example 12, 2-amino-9-[(1R,6S,8R,9R,14S,16R)-16-(6-amino-9H-purin-9-yl)-3,11-dihydroxy-3,11-dioxido-2,4,7,10,12,15-hexaoxa-3,11-diphosphatricyclo[12.2.1.1^6,9]octadec-8-yl]-1,9-dihydro-6H-purin-6-one] | – | 50%
8 | – | 11.2 nM | Nc1nc2c(ncn2[C@@H]2O[C@@H]3COP(=O)(O)O[C@@H]4[C@@H](F)[C@@H](COP(=O)(O)O[C@@H]2[C@@H]3F)O[C@H]4n2cnc3c(N)ncnc32)c(=O)[nH]1 [Example 13, 2-amino-9-[(1S,6R,8R,9S,14R,16R,17S,18R)-16-(6-amino-9H-purin-9-yl)-17,18-difluoro-3,11-dihydroxy-3,11-dioxido-2,4,7,10,12,15-hexaoxa-3,11-diphosphatricyclo[12.2.1.1^6,9]octadec-8-yl]-1,9-dihydro-6H-purin-6-one] | – | 128%
9 | – | 6.6 nM | Nc1ncnc2c1ncn2[C@@H]1O[C@@H]2COP(=O)(S)O[C@@H]3[C@H](O)[C@@H](COP(=O)(S)O[C@@H]1[C@@H]2O)O[C@H]3n1cnc2c(N)ncnc21 (stereo partly drawn) [Example 27, (1R,6R,8R,9R,14R,16R,17R,18R)-8,16-bis(6-amino-9H-purin-9-yl)-3,11-disulfanyl-2,4,7,10,12,15-hexaoxa-3,11-diphosphatricyclo[12.2.1.1^6,9]octadecane-17,18-diol 3,11-dioxide] | – | 76%
10 | 7350 nM | – | Nc1nc2c(ncn2[C@@H]2O[C@@H]3COP(=O)(S)O[C@@H]4[C@@H](F)[C@@H](COP(=O)(S)O[C@@H]2[C@H]3F)O[C@H]4n2cnc3c(=O)[nH]c(N)nc32)c(=O)[nH]1 (stereo partly drawn) [Example 30, 9,9′-[(1S,6R,8R,9S,14R,16R,17S,18S)-17,18-difluoro-3,11-dioxido-3,11-disulfanyl-2,4,7,10,12,15-hexaoxa-3,11-diphosphatricyclo[12.2.1.1^6,9]octadecane-8,16-diyl]bis(2-amino-1,9-dihydro-6H-purin-6-one)] | – | 8%
11 | < 1 nM | – | Nc1nc2c(nnn2[C@@H]2O[C@@H]3COP(=O)(S)O[C@@H]4[C@H](F)[C@@H](COP(=O)(S)O[C@@H]2[C@@H]3F)O[C@H]4n2nnc3c(=O)[nH]c(N)nc32)c(=O)[nH]1 (stereo partly drawn) [Example 31, 3,3′-[(1S,6R,8R,9S,14R,16R,17R,18R)-17,18-difluoro-3,11-dioxido-3,11-disulfanyl-2,4,7,10,12,15-hexaoxa-3,11-diphosphatricyclo[12.2.1.1^6,9]octadecane-8,16-diyl]bis(5-amino-3,6-dihydro-7H-[1,2,3]triazolo[4,5-d]pyrimidin-7-one)] | – | 57%
12 | – | 1.6 nM | Nc1nc2c(ncn2[C@@H]2O[C@@H]3COP(=O)(O)O[C@@H]4[C@H](N)[C@@H](COP(=O)(O)O[C@@H]2[C@@H]3O)O[C@H]4n2cnc3c(N)ncnc32)c(=O)[nH]1 [Example 33, 2-amino-9-[(1R,6R,8R,9R,14S,16R,17R,18R)-17-amino-16-(6-amino-9H-purin-9-yl)-3,11,18-trihydroxy-3,11-dioxido-2,4,7,10,12,15-hexaoxa-3,11-diphosphatricyclo[12.2.1.1^6,9]octadec-8-yl]-1,9-dihydro-6H-purin-6-one] | – | 140%
